The target in one assay is T1, Drosophila topo II (Drosophila melanogaster, UniProt P15348).
T1 construct: purchased Amersham
T1 sequence (P15348 1-1447): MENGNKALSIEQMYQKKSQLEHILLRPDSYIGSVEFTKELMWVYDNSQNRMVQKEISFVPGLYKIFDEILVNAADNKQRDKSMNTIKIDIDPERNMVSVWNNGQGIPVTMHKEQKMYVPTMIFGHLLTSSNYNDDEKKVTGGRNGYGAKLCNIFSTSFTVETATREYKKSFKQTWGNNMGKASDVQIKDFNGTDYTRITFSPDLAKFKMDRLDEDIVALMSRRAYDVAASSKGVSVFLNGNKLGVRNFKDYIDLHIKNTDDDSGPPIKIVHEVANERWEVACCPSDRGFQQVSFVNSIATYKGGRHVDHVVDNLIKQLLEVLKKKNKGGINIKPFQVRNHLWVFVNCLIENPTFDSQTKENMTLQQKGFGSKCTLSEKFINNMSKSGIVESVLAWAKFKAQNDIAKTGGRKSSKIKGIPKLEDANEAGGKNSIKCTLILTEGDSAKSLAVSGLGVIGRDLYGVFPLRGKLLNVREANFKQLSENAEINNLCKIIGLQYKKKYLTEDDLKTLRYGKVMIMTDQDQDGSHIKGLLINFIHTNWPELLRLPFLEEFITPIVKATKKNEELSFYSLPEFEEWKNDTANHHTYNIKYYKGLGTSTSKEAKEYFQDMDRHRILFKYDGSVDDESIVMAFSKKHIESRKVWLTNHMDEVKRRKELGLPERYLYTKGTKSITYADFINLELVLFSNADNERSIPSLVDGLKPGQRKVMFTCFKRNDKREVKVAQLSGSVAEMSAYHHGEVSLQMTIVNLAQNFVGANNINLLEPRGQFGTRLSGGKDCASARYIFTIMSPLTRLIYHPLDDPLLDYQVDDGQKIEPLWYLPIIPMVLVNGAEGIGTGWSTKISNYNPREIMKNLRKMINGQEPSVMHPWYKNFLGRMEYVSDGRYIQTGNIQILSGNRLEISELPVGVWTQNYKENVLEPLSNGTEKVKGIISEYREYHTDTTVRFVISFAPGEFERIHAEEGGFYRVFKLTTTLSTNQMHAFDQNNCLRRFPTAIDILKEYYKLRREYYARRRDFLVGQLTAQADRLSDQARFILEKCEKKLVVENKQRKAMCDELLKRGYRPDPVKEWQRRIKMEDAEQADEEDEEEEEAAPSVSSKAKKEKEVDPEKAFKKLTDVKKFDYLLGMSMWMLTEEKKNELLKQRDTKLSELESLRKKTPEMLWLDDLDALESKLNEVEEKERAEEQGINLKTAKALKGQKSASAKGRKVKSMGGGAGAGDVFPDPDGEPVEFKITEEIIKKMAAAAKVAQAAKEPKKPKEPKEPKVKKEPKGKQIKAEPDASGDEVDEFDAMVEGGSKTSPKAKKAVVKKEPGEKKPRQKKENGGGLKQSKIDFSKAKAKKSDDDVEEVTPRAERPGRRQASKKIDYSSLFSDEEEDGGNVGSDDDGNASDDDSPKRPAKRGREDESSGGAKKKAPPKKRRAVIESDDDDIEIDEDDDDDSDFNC
The assay is described as follows: Topo II cleavage reaction. In kind it is biochemical. To be noted: up to 10 μM. As for the experimental part:
FIGS. 5, A-B. Effect of A-62176 (I in FIG. 2) on DNA cleavage by topo II in the presence of ATP. (A) Autoradiogram of a 12% denaturing polyacrylamide gel showing topo II-mediated cleavage pattern in the presence of A-62176. The cleavage reaction was done in a reaction buffer containing 10 mM imidazole-HCl (pH 6.0), 10 mM MgCl2, 50 mM KCl, and 1 mM ATP, as described in the Materials and Methods section. Lanes 1-7 contain 20 units of Drosophila topo II. Lane 1 contains no drug. Lanes 2-7 contain 0.2, 0.5, 1, 2, 5 and 10 μM of A-62176, respectively. (B) Topo II cleavage products indicated by arrows in (A) were quantitated using a PhosphorImager and analyzed using ImageQuanNT software (Molecular Dynamics). The intensity of the topo II-mediated cleavage was determined from the volume of the bands [indicated by arrows in (A)] normalized by the total radioactivity in each lane.
5′^32P-labeled DNA was incubated with Drosophila topo II in 20 μl of a reaction buffer [10 mM imidazole-HCl (pH 6.0), 10 mM MgCl2, 50 mM KCl, and 1 mM ATP] at 30° C. for 10 min in the presence of various amounts of A-62176. Reactions were terminated by adding SDS to 1%, and topo II was removed by proteinase K digestion (100 μg/ml) at 42° C. for 1 hr followed by phenol/chloroform extraction and ethanol precipitation.

The next assay has as its system HT-29 colon. The assay is described as follows: Cancer cell growth inhibition assay (MTT). To be noted: Homo sapiens, HT-29. In kind it is cell-based, human. As for the experimental part: (§1) Exponentially growing cells in 0.1 ml medium were seeded on Day 0 in 96-well microtiter plates. On Day 1, 0.1-ml aliquots of medium containing graded concentrations test agent were added in duplicate to the cell plates. After incubation at 37° C. in a humidified incubator, the plates were centrifuged briefly (1-2 min at 1000 rpm), and 100 μl of the growth medium was removed. Cell cultures were incubated with 50 μl of 3-(4,5-dimethylthiazyl-2-yl)-2,5-diphenyltetrazolium bromide MTT, 1 mg/ml in Dubecco's PBS for 4 h at 37° C. The resulting purple formazan precipitate was solubilized with 200 μl of 0.4 N HCl in isopropyl alcohol. Absorbance was quantitated using a Bio-Rad Model 3550 microplate reader at a test wavelength of 570 nm and a reference wavelength of 630 nm. Absorbance values were transferred to a 486 personal computer, and the IC50 values were determined using the computer program EZ-ED50 (Chen et al., 1993).

The next assay relates to DU-145 prostate. The assay is described as follows: Cancer cell growth inhibition assay (MTT). Type of assay: cell-based, human. To be noted: Homo sapiens, DU-145. As for the experimental part: as §1
For the next assay, the system named is H226 non-small-cell lung. The assay is described as follows: Cancer cell growth inhibition assay (MTT). Type of assay: cell-based, human. To be noted: Homo sapiens, NCI-H226. As for the experimental part:
as §1

For the next assay, the system named is MDA-231 breast. The assay is described as follows: Cancer cell growth inhibition assay (MTT). To be noted: Homo sapiens, MDA-MB-231. In kind it is cell-based, human. As to the method: as §1
Another assay relates to Raji lymphoma. The assay is described as follows: Cancer cell growth inhibition assay (MTT). The settings on record: Homo sapiens, Raji. In kind it is cell-based, human. As to the method: as §1

Molecules are shown by their SMILES.

For orientation: IC50 means the midpoint of a concentration-inhibition curve.

In the case of `N[C@H]1CCN(c2c(F)cc3c(=O)c(C(=O)O)cn4c3c2Oc2ccccc2-4)C1` [Compound A-62176, 1-(3-aminopyrrolidin-1-yl)-2-fluoro-4-oxo-4H-quino[2,3,4-i,j][1,4]benzoxazine-5-carboxylic acid, reference compound], the “topo II-mediated cleavage” value on Drosophila topo II is on record as “enhance”. Further, the IC50 turned out to be 160 ± 10 nM in the assay with HT-29 colon; 160 ± 30 nM in the assay with DU-145 prostate; 90 ± 3 nM with H226 non-small-cell lung; 160 ± 20 nM with MDA-231 breast; 50 ± 6 nM in the assay with Raji lymphoma.

The record behind these values is US6528517B1, “Synthesis of quinobenzoxazine analogues with topoisomerase II and quadruplex interactions for use as antineoplastic agents” (Board of Regents, The University of Texas System, priority 1998, dated 2003).
